In patent US20220363662A1, “COMPOUNDS AS LXR AGONISTS” (Integral Biosciences Privated Limited, priority 2021, published 2022):

Biological target: T1, LXR beta (Homo sapiens, UniProt P55055)
T1 construct: 5 μL of 4×LXR beta-LBD was added to each well (final concentration 5 nM); purchased Thermofisher PV4658
T1 sequence (P55055 222-460 limits assumed): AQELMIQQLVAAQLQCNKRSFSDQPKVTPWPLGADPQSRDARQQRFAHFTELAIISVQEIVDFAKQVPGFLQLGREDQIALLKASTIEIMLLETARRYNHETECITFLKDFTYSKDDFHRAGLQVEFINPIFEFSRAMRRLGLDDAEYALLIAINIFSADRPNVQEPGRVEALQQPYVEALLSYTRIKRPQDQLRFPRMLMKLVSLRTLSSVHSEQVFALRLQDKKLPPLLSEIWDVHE
Test: LXR beta agonist assay (Lanthascreen TR-FRET)
Type: biochemical
Conditions: LXR beta-LBD 5 nM, read-out: LXR-β EC50
Description: EC50 values of compounds against LXR beta were determined at Integral BioSciences (India) using Lanthascreen TR-FRET (Thermofisher, Cat #PV4658). Assay was performed in a 20 μL final volume in a Black 384-well plate (Corning, Cat #4511). Dose response curve for the compounds were prepared in duplicates with starting concentration at 30 μM and a three-fold titration was performed. The reaction buffer consisted of TR-FRET Coregulator Buffer G. To the compound dilution, 5 μL of 4×LXR beta-LBD was added to each well (final concentration 5 nM). An equal volume (5 μL) containing 4×Fl-D22/Tb-anti GST antibody (final concentration 100 nM/10 nM) was added to initiate the enzyme reaction and the reaction was incubated for 60 min at 22° C. after which the plates were read using BioTek Plate reader for TR-FRET every hour up to 4 hours.
Analysis was done using the standard curve by non-linear regression, variable slope inhibitor curve fits (Graph-Pad Prism) and EC50's of compounds were determined wherever possible.

Row | SMILES | EC50 [µM]
1 | COc1cccc(C2(C(=O)N3CCC(N4CC(Nc5ccc(C(=O)N(C)C)c(Cl)c5)C4)CC3)CCCC2)c1 [Compound 1.67, 2-chloro-4-(1-(1-(1-(3-methoxyphenyl)cyclopentanecarbonyl)piperidin-4-yl)azetidin-3-ylamino)-N,N-dimethylbenzamide] | 0.995
2 | CN(C)C(=O)c1ccc(-c2nnc(C3=CCN(C(=O)C(O)(c4ccccc4)C(F)(F)F)CC3)s2)cc1Cl (stereo not shown) [Compound 1.68, 2-chloro-N,N-dimethyl-4-(5-(1-(3,3,3-trifluoro-2-hydroxy-2-phenylpropanoyl)-1,2,3,6-tetrahydropyridin-4-yl)-1,3,4-thiadiazol-2-yl)benzamide] | 4.58
3 | CN(C)C(=O)c1ccc(NC2CN(C3CCN(C(=O)C45CC(C4)C5)CC3)C2)cc1Cl [Compound 1.69, 4-(1-(1-(bicyclo[1.1.1]pentane-1-carbonyl)piperidin-4-yl)azetidin-3-ylamino)-2-chloro-N,N-dimethylbenzamide] | 3.79
4 | CN(C)C(=O)c1ccc(-c2nnc(N3CCN(S(=O)(=O)c4ccccc4Cl)CC3)s2)cc1F [Compound 1.70, 4-(5-(4-(2-chlorophenylsulfonyl)piperazin-1-yl)-1,3,4-thiadiazol-2-yl)-2-fluoro-N,N-dimethylbenzamide] | 9.77
5 | CN(C)C(=O)c1ccc(C2CCN(C3CC4(C3)CN(C(=O)C(O)(c3ccccc3)C(F)(F)F)C4)CC2)cc1Cl (stereo not shown) [Compound 1.80, 2-chloro-N,N-dimethyl-4-(1-(2-(3,3,3-trifluoro-2-hydroxy-2-phenylpropanoyl)-2-azaspiro[3.3]heptan-6-yl)piperidin-4-yl)benzamide] | 4.33
6 | CN(C)C(=O)c1ccc(NC2CN(C3CC4(C3)CN(C(=O)[C@](O)(c3ccccc3)C(F)(F)F)C4)C2)cc1Cl [Compound 1.81, 2-chloro-N,N-dimethyl-4-(1-(2-((R)-3,3,3-trifluoro-2-hydroxy-2-phenylpropanoyl)-2-azaspiro[3.3]heptan-6-yl)azetidin-3-ylamino)benzamide] | 4.22
7 | CC1CN(S(=O)(=O)c2ccccc2Cl)CCN1c1nnc(-c2ccc(C(=O)N(C)C)c(F)c2)s1 (stereo not shown) [Compound 1.82, 4-(5-(4-(2-chlorophenylsulfonyl)-2-methylpiperazin-1-yl)-1,3,4-thiadiazol-2-yl)-2-fluoro-N,N-dimethylbenzamide] | 9.02
8 | CC1CN(c2nnc(-c3ccc(C(=O)N(C)C)c(Cl)c3)s2)CCN1S(=O)(=O)c1ccccc1Cl (stereo not shown) [Compound 1.83, 2-chloro-4-(5-(4-(2-chlorophenylsulfonyl)-3-methylpiperazin-1-yl)-1,3,4-thiadiazol-2-yl)-N,N-dimethylbenzamide] | 8.46
9 | CN(C)C(=O)c1ccc(NC2CN(C3CCN(C(=O)C(O)(c4ccccc4)C(F)(F)F)CC3)C2)cc1F (stereo not shown) [Compound 1.85, 2-fluoro-N,N-dimethyl-4-((1-(1-(3,3,3-trifluoro-2-hydroxy-2-phenylpropanoyl)piperidin-4-yl)azetidin-3-yl)amino)benzamide] | > 30
10 | O=C(c1ccc(NC2CN(C3CCN(C(=O)C(O)(c4ccccc4)C(F)(F)F)CC3)C2)cc1Cl)N1CCCC1 (stereo not shown) [Compound 1.88, 1-(4-(3-(3-chloro-4-(pyrrolidine-1-carbonyl)phenylamino)azetidin-1-yl)piperidin-1-yl)-3,3,3-trifluoro-2-hydroxy-2-phenylpropan-1-one] | > 30
11 | O=C(c1ccc(NC2CN(C3CCN(C(=O)C(O)(c4ccccc4)C(F)(F)F)CC3)C2)cc1Cl)N1CCCCC1 (stereo not shown) [Compound 1.89, 1-(4-(3-(3-chloro-4-(piperidine-1-carbonyl)phenylamino)azetidin-1-yl)piperidin-1-yl)-3,3,3-trifluoro-2-hydroxy-2-phenylpropan-1-one] | > 30
12 | CC1CN(C(=O)c2ccc(NC3CN(C4CCN(C(=O)C(O)(c5ccccc5)C(F)(F)F)CC4)C3)cc2Cl)C1 (stereo not shown) [Compound 1.94, 1-(4-(3-((3-chloro-4-(3-methylazetidine-1-carbonyl)phenyl)amino)azetidin-1-yl)piperidin-1-yl)-3,3,3-trifluoro-2-hydroxy-2-phenylpropan-1-one] | 6.79
13 | O=C(NCC(F)F)c1ccc(NC2CN(C3CCN(C(=O)C(O)(c4ccccc4)C(F)(F)F)CC3)C2)cc1Cl (stereo not shown) [Compound 1.98, 2-chloro-N-(2,2-difluoroethyl)-4-((1-(1-(3,3,3-trifluoro-2-hydroxy-2-phenylpropanoyl)piperidin-4-yl)azetidin-3-yl)amino)benzamide] | 9.8
14 | CN(C)C(=O)c1ccc(NC2CN(C3CCN(C(=O)C(O)(C4CCCCC4)C(F)(F)F)CC3)C2)cc1Cl (stereo not shown) [Compound 1.101, 2-chloro-4-((1-(1-(2-cyclohexyl-3,3,3-trifluoro-2-hydroxypropanoyl)piperidin-4-yl)azetidin-3-yl)amino)-N,N-dimethylbenzamide] | 4.85
15 | O=C(c1ccc(NC2CN(C3CCN(C(=O)C(O)(c4ccccc4)C(F)(F)F)CC3)C2)cc1Cl)N1CCN(C(=O)C2CCC2)CC1 (stereo not shown) [Compound 1.102, 1-(4-(3-((3-chloro-4-(4-(cyclobutanecarbonyl)piperazine-1-carbonyl)phenyl)amino)azetidin-1-yl)piperidin-1-yl)-3,3,3-trifluoro-2-hydroxy-2-phenylpropan-1-one] | 3.18
16 | CC(=O)N1CCN(C(=O)c2ccc(NC3CN(C4CCN(C(=O)C(O)(c5ccccc5)C(F)(F)F)CC4)C3)cc2Cl)CC1 (stereo not shown) [Compound 1.103, 1-(4-(3-((4-(4-acetylpiperazine-1-carbonyl)-3-chlorophenyl)amino)azetidin-1-yl)piperidin-1-yl)-3,3,3-trifluoro-2-hydroxy-2-phenylpropan-1-one] | > 30
17 | O=C(c1ccc(NC2CN(C3CCN(C(=O)C(O)(c4ccccc4)C(F)(F)F)CC3)C2)cc1Cl)N1CC(F)(F)C1 (stereo not shown) [Compound 1.110, 1-(4-(3-(3-chloro-4-(3,3-difluoroazetidine-1-carbonyl)phenylamino)azetidin-1-yl)piperidin-1-yl)-3,3,3-trifluoro-2-hydroxy-2-phenylpropan-1-one] | 5.71
18 | COCCCN(C)C(=O)c1ccc(N2CCN(C3CC4(C3)CN(C(=O)C(O)(c3ccccc3)C(F)(F)F)C4)CC2)cc1Cl (stereo not shown) [Compound 1.119, 2-chloro-N-(3-methoxypropyl)-N-methyl-4-(4-(2-(3,3,3-trifluoro-2-hydroxy-2-phenylpropanoyl)-2-azaspiro[3.3]heptan-6-yl)piperazin-1-yl)benzamide] | 2.85
19 | CN(C)C(=O)c1c(Cl)cc(NC2CN(C3CCN(C(=O)[C@](O)(c4ccccc4)C(F)(F)F)CC3)C2)cc1Cl [Compound 1.122, (R)-2,6-dichloro-N,N-dimethyl-4-(1-(1-(3,3,3-trifluoro-2-hydroxy-2-phenylpropanoyl)piperidin-4-yl)azetidin-3-ylamino)benzamide] | 4.26
20 | CN(C)C(=O)c1c(Cl)cc(NC2CN(C3CCN(C(=O)[C@@](O)(c4ccccc4)C(F)(F)F)CC3)C2)cc1Cl [Compound 1.123, (S)-2,6-dichloro-N,N-dimethyl-4-(1-(1-(3,3,3-trifluoro-2-hydroxy-2-phenylpropanoyl)piperidin-4-yl)azetidin-3-ylamino)benzamide] | > 27
21 | COCCCN(C)C(=O)c1ccc(NC2CN(C3CCN(C(=O)[C@](O)(c4ccccc4)C(F)(F)F)CC3)C2)cc1Cl [Compound 1.124, (R)-2-chloro-N-(3-methoxypropyl)-N-methyl-4-(1-(1-(3,3,3-trifluoro-2-hydroxy-2-phenylpropanoyl)piperidin-4-yl)azetidin-3-ylamino)benzamide] | 1.57
22 | CN(CCCC(F)(F)F)C(=O)c1ccc(NC2CN(C3CCN(C(=O)[C@](O)(c4ccccc4)C(F)(F)F)CC3)C2)cc1Cl [Compound 1.125, (R)-2-chloro-N-methyl-4-(1-(1-(3,3,3-trifluoro-2-hydroxy-2-phenylpropanoyl)piperidin-4-yl)azetidin-3-ylamino)-N-(4,4,4-trifluorobutyl)benzamide] | 3.98
23 | CN(C)C(=O)c1c(F)cc(N2CCN(C3CC4(C3)CN(C(=O)C(O)(c3ccccc3)C(F)(F)F)C4)CC2)cc1F (stereo not shown) [Compound 1.126, 2,6-difluoro-N,N-dimethyl-4-(4-(2-(3,3,3-trifluoro-2-hydroxy-2-phenylpropanoyl)-2-azaspiro[3.3]heptan-6-yl)piperazin-1-yl)benzamide] | 1.58
24 | CN(C)C(=O)c1ccc(C2=CCN(C3CC4(C3)CN(C(=O)C(O)(c3ccccc3)C(F)(F)F)C4)CC2)cc1Cl (stereo not shown) [Compound 1.127, 2-chloro-N,N-dimethyl-4-(1-(2-(3,3,3-trifluoro-2-hydroxy-2-phenylpropanoyl)-2-azaspiro[3.3]heptan-6-yl)-1,2,3,6-tetrahydropyridin-4-yl)benzamide] | 3.95
25 | CN(C)C(=O)c1cc([N+](=O)[O-])c(NC2CN(C3CCN(C(=O)[C@](O)(c4ccccc4)C(F)(F)F)CC3)C2)cc1Cl [Compound 1.129, (R)-2-chloro-N,N-dimethyl-5-nitro-4-(1-(1-(3,3,3-trifluoro-2-hydroxy-2-phenylpropanoyl)piperidin-4-yl)azetidin-3-ylamino)benzamide] | 3.47
